From ChEMBL document CHEMBL1142715, “Discovery of new tetracyclic tetrahydrofuran derivatives as potential broad-spectrum psychotropic agents” (J Med Chem, 2005) come the findings set out here.

For experiment [1], the system named is Rattus norvegicus. Description: In vivo effective dose to inhibit tryptamine-induced bilateral convulsions in rats. Type of experiment: functional.
The species entered for experiment [2] is Rattus norvegicus. Description: Effective dose for antagonistic activity against m-chlorophenyl-piperazine induced anxiety in rats. Type of experiment: functional.
In experiment [3] the test system is Rattus norvegicus. Description: In vivo effective dose for reversal of tryptamine-induced cyanosis in rats. Type of experiment: functional.
Experiment [4] concerns Rattus norvegicus. Put plainly: In vivo effective dose to inhibit apomorphine induced agitation in rats upon subcutaneous administration. Type of experiment: functional. To be noted: sc.
For experiment [5], the system named is Mus musculus. Description: In vivo effective dose for reversal of RO-4-1284 induced hypothermia in mouse. Format: functional.
The target in experiment [6] is Histamine H1 receptor (Homo sapiens, UniProt P35367).
Histamine H1 receptor, sequence (P35367 whole entry): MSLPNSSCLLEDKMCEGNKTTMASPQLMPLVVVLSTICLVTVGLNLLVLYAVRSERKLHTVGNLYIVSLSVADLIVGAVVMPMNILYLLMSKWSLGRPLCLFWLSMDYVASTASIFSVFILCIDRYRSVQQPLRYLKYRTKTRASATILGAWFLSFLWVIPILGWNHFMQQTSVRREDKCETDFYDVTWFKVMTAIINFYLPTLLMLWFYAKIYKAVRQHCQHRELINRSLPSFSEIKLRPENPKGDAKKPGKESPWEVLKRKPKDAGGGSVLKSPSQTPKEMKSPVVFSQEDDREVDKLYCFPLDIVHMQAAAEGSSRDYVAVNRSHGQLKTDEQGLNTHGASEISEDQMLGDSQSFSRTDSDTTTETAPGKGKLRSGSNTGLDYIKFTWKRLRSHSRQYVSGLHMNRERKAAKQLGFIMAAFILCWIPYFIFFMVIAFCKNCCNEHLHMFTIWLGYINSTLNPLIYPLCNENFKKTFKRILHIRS
Description: Inhibition of [3H]pyrilamine binding to human Histamine H1 receptor
In experiment [7] the target is T1, Alpha-2C adrenergic receptor (Homo sapiens, UniProt P18825).
T1 sequence (P18825 whole entry): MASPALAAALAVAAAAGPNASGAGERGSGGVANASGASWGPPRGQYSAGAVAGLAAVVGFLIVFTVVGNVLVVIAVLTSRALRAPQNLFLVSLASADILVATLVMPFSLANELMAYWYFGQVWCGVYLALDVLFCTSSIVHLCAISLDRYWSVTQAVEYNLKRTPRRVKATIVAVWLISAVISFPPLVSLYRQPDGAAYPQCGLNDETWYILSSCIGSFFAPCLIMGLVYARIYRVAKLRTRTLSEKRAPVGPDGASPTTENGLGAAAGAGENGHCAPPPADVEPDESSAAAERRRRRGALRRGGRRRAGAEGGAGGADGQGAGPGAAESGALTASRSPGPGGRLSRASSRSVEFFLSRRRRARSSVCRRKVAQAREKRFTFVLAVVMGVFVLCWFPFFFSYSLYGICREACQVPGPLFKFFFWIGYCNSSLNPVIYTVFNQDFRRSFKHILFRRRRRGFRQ
Put plainly: Inhibition of [3H]rauwolscine binding to Alpha-2C adrenergic receptor.

The target in experiment [8] is Norepinephrine transporter (Rattus norvegicus, UniProt Q9WTR4). Description: Inhibition of [3H]nisoxetine binding to rat Norepinephrine transporter.
Norepinephrine transporter, sequence (Q9WTR4 whole entry): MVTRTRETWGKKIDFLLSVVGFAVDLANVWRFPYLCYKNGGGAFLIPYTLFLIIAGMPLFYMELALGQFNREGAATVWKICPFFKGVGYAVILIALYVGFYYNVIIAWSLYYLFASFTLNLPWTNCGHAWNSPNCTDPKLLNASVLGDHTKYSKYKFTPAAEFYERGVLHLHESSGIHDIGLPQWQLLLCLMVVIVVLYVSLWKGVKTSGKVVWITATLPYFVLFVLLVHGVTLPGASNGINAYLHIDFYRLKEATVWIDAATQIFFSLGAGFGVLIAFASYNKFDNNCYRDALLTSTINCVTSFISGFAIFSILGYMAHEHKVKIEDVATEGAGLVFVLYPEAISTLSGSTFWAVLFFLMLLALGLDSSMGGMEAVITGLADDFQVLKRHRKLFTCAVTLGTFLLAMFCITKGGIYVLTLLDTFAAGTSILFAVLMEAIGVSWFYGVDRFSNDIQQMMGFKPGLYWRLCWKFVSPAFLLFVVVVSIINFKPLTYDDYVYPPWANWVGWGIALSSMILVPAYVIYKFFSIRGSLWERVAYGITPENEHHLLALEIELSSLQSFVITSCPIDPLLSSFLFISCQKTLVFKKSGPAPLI
For experiment [9], the target named is T2, Adrenergic receptor alpha-1 (Rattus norvegicus, UniProt P15823+P23944+P43140).
T2 sequence (P15823 whole entry): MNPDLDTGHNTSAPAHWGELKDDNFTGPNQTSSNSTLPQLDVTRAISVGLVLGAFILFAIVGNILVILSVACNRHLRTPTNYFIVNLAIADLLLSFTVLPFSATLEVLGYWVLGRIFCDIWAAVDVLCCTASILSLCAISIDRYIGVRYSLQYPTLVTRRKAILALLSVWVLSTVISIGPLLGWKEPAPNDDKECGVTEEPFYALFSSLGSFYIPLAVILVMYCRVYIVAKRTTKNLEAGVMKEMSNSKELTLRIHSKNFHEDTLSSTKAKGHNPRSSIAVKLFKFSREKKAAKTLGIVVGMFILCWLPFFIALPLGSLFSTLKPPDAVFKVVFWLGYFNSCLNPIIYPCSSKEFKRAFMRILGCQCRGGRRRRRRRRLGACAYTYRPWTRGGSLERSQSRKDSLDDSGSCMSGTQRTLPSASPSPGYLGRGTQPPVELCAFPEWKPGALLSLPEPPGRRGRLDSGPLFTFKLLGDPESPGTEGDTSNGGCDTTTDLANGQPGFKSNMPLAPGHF
T2 sequence (P23944 whole entry): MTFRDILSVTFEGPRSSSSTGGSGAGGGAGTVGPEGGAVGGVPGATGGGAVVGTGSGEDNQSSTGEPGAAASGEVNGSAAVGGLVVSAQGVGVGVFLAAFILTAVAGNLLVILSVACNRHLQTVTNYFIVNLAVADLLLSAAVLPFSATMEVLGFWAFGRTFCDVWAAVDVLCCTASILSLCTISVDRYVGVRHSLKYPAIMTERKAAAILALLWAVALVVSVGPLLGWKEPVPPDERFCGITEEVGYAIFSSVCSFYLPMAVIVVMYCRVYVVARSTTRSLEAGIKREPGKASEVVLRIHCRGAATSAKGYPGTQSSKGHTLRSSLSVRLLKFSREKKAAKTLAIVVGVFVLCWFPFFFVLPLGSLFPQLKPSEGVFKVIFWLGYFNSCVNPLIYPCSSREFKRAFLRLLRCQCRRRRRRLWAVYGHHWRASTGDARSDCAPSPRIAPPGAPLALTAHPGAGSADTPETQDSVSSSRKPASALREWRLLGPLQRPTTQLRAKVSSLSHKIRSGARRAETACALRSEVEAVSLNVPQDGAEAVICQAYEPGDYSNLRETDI
T2 sequence (P43140 whole entry): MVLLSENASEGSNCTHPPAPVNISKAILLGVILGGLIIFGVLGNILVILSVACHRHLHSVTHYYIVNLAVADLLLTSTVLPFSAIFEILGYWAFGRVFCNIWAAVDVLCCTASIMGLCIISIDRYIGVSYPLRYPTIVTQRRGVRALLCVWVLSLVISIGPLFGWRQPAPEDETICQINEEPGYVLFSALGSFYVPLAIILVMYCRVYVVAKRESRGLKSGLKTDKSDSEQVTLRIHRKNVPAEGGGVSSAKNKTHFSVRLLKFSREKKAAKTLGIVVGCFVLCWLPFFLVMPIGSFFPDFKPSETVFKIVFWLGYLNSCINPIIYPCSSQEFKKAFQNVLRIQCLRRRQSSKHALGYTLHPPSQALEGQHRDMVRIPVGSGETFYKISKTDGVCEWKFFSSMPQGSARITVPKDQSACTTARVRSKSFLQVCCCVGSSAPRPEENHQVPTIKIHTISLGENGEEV
Description: Inhibition of [3H]prazosin binding to rat Alpha-1 adrenergic receptor

Experiment [10] concerns the target T3, 5-hydroxytryptamine receptor 2C (Homo sapiens, UniProt P28335).
T3 sequence (P28335 whole entry): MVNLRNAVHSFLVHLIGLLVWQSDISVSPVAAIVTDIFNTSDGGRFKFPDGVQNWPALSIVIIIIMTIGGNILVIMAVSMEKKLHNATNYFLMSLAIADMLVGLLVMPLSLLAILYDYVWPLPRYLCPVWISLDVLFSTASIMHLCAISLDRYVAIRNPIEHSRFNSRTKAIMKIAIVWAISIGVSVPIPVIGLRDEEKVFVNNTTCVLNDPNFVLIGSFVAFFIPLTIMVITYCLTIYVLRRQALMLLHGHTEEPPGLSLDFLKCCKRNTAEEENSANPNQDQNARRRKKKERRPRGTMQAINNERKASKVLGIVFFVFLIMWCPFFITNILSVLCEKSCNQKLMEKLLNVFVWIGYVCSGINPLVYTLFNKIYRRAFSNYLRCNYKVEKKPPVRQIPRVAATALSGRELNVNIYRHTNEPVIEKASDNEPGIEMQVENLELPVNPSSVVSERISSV
Description: Inhibition of [3H]mesulergine binding to human 5-hydroxytryptamine 2C receptor

The target of experiment [11] is D(1A) dopamine receptor (Homo sapiens, UniProt P21728). Put plainly: Inhibition of [3H]SCH-23390 binding to human Dopamine receptor D1.
D(1A) dopamine receptor, sequence (P21728 whole entry): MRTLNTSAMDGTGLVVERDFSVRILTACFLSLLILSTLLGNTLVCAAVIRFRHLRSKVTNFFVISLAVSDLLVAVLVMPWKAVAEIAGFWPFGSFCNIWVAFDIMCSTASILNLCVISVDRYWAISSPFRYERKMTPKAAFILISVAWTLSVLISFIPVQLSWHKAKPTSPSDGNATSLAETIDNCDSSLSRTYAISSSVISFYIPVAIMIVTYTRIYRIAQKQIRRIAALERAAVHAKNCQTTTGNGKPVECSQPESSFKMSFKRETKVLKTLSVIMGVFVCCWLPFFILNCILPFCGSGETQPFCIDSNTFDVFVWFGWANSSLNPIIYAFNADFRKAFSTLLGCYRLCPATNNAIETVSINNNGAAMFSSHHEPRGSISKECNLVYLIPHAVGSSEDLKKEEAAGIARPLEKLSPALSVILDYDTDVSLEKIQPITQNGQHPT
The target of experiment [12] is 5-hydroxytryptamine receptor 7 (Homo sapiens, UniProt P34969).
5-hydroxytryptamine receptor 7, sequence (P34969 whole entry): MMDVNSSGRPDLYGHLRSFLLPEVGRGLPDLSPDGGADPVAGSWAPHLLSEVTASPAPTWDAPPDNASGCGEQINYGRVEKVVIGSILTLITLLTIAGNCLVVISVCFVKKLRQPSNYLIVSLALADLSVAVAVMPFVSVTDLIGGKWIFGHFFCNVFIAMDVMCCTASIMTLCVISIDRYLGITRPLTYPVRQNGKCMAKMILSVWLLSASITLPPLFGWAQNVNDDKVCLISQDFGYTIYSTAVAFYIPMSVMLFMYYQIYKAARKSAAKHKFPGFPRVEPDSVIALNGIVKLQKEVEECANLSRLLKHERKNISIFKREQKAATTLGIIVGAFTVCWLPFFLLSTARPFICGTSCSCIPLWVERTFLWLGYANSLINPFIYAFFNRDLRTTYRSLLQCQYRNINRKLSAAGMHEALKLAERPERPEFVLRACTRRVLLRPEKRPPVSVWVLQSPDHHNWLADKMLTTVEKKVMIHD
Description: Inhibition of [3H]5-HT binding to human 5-hydroxytryptamine 7 receptor
The test system of experiment [13] is Rattus norvegicus. Description: In vivo effective dose for reversal of tryptamine-induced backward locomotion in rats. Format: functional.
Experiment [14] deals with T4, Alpha-2A adrenergic receptor (Homo sapiens, UniProt P08913).
T4 sequence (P08913 whole entry): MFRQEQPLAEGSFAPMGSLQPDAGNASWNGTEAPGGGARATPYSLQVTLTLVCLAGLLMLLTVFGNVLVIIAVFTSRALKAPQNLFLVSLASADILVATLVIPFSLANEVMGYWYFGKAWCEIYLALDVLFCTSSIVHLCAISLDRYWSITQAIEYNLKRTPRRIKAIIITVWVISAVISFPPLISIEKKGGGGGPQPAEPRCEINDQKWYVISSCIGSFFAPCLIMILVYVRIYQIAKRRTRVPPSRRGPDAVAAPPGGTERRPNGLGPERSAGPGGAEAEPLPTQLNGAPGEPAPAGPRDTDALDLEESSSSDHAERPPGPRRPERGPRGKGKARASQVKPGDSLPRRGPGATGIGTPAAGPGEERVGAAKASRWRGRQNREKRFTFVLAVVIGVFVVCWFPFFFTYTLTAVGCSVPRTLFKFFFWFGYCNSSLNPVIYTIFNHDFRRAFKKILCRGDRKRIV
Description: Inhibition of [3H]rauwolscine binding to Alpha-2A adrenergic receptor

The target of experiment [15] is D(3) dopamine receptor (Homo sapiens, UniProt P35462).
D(3) dopamine receptor, sequence (P35462 whole entry): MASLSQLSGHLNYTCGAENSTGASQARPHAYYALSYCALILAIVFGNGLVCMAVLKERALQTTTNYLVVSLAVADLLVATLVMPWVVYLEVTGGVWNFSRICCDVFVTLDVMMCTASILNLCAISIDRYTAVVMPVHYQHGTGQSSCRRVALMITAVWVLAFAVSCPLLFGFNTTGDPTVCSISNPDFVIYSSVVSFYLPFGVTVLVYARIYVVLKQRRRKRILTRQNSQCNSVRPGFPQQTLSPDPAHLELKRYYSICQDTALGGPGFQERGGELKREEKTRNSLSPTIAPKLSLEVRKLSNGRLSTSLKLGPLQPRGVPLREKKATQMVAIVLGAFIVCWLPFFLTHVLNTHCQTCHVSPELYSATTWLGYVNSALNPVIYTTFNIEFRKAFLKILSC
Description: Inhibition of [125I]iodosulpiride binding to human Dopamine receptor D3

pKi: −log10 of the molar value.

As to `CN1CCN(C2=Nc3cc(Cl)ccc3Nc3ccccc32)CC1` [CLOZAPINE], the ED50 (usually the midpoint of the dose-response relation) in experiment [1] is 0.22 mg/kg; in [2] it was more than 2.5 mg/kg; in experiment [3] it was 0.26 mg/kg; in experiment [4], 8.2 mg/kg; in experiment [5], more than 80 mg/kg.
Regarding `CN(C)C[C@H]1C[C@@H]2c3ccccc3Sc3ccc(F)cc3[C@H]2O1`, the ED50 in [1] was 0.08 mg/kg; in experiment [2], more than 2.5 mg/kg; in experiment [3] it was 0.05 mg/kg; in experiment [4], 1.2 mg/kg; in experiment [13] it was more than 2.5 mg/kg; in [5], 2 mg/kg. The pKi (in general, the Ki on a negative log10 scale, so that one unit is a factor of ten) in experiment [6] was 8.85; in experiment [7], 7.03; in experiment [8] it was 7.40; in experiment [10] it was 8.82; in [11] it was 7.66; in experiment [12], 8.19. The pKi in experiment [14] is 6.81; in experiment [15], 7.82. The Ki (as a rule, the equilibrium dissociation constant of an inhibitor or competing ligand from its target) in experiment [9] came to 0.041 µM.
As to `CN(C)C[C@@H]1CC2c3ccccc3Oc3ccc(Cl)cc3[C@H]2O1` (stereo partly specified), the pKi in experiment [6] is 7.85; in [7] it was 6.17; in [8] it was 7.06; in [10] it was 8.43; in [11], 6.60; in experiment [12], 7.04. Also, the pKi in experiment [14] is 6.52; in [15] it was 7.35. Besides, the Ki in [9] came to 0.228 µM.
On to `CN(C)C[C@@H]1CC2c3ccccc3Sc3ccc(F)cc3[C@H]2O1` (stereo partly specified), for which the pKi in [6] was 8.92; in experiment [7], 7.11; in [8], 8.57; in [10], 9.19; in experiment [11], 7.72; in [12] it was 7.47. The pKi in experiment [14] is 7.14; in experiment [15], 8.07. Moreover, the Ki in experiment [9] was determined as 0.032 µM.
For the compound `CN1CCN2c3ccccc3Cc3ccccc3C2C1` (stereo unspecified) [MIANSERIN], the ED50 was 0.24 mg/kg in experiment [1]; 1.26 mg/kg in experiment [2]; 0.18 mg/kg in experiment [3]; more than 10 mg/kg in experiment [4]; 0.55 mg/kg in experiment [13]; more than 40 mg/kg in [5]. In addition, the pKi in experiment [7] is 8.42; in [8], 7.00.
With `CN(C)C[C@@H]1CC2c3ccccc3Oc3ccc(Br)cc3[C@H]2O1` (stereo partly specified), the pKi in [8] was less than 5.26; in experiment [10], 7.77.
For `CN(C)C[C@H]1C[C@@H]2c3ccccc3Cc3ccccc3[C@H]2O1`, the ED50 in experiment [1] was 0.02 mg/kg; in experiment [2], 0.18 mg/kg; in experiment [3] it was 0.02 mg/kg; in experiment [4] it was 2 mg/kg; in experiment [13], 1.2 mg/kg; in experiment [5] it was 0.2 mg/kg. Further, the pKi in experiment [6] was 9.37; in experiment [7], 7.16; in [8], 8.11; in [12], 7.89; in experiment [14] it was 6.90; in [15], 7.08. In [9], this compound had a Ki of 0.108 µM.
`CN(C)C[C@H]1CC2c3ccccc3Oc3ccc(Br)cc3[C@H]2O1` (stereo partly specified): the pKi in [6] was 7.38; in [7], 6.13; in experiment [8], 6.42; in experiment [10] it was 8.05; in experiment [11], 6.81; in [12], 7.46. The pKi is 6.39 in [14] and 7.02 in experiment [15]. For the same compound, the Ki in [9] was 0.234 µM.
Take `CN(C)C[C@H]1CC2c3ccccc3Oc3ccc(Cl)cc3[C@H]2O1` (stereo partly specified): the pKi in experiment [6] was 8.37; in experiment [7] it was 7.59; in experiment [8], 8.03; in experiment [10], 8.62; in experiment [11], 7.08; in experiment [12] it was 6.60. For the same compound, the results for the pKi in experiment [14] and in experiment [15] were 8.00 and 6.60, respectively. For the same compound, the Ki in [9] was 0.035 µM.
Take `CN(C)C[C@H]1CC2c3ccccc3Sc3ccc(F)cc3[C@H]2O1` (stereo in doubt; 8d): the pKi is 9.28 in experiment [6]; 7.23 in [7]; 8.80 in experiment [8]; more than 9.38 in [10]; 8.28 in [11]; 8.18 in experiment [12]. The pKi in experiment [14] was 7.18; in experiment [15], 8.96. This compound registered an inhibition constant (Ki) in experiment [9] of 0.0088 µM.
Take `Cc1cc2c(s1)Nc1ccccc1N=C2N1CCN(C)CC1` [OLANZAPINE]: the ED50 is 0.086 mg/kg in experiment [1]; 0.44 mg/kg in experiment [2]; 0.032 mg/kg in [3]; 0.26 mg/kg in experiment [4]; more than 10 mg/kg in experiment [5]. The pKi in experiment [8] is 6.02.
In the case of `Cc1nc2n(c(=O)c1CCN1CCC(c3noc4cc(F)ccc34)CC1)CCCC2` [RISPERIDONE], the ED50 was 0.037 mg/kg in [1]; more than 0.31 mg/kg in experiment [2]; 0.002 mg/kg in experiment [3]; 0.17 mg/kg in experiment [4]; more than 10 mg/kg in experiment [13]; more than 10 mg/kg in [5]. Also, the pKi in [8] is less than 5.26.
